Patent US20250136607A1 (REGOR PHARMACEUTICALS, INC., priority 2021, published 2025)
Like-named read-outs stand apart in the source and are kept apart here.

Target: Protein arginine deiminase 4 (PAD4) (Homo sapiens, UniProt Q9UM07)
Test: PAD4 ammonia release assay
Type: biochemical
Description: 1) Compound preparation: The compounds were diluted to 80× final concentrations. 2) The compounds were transferred to a 384-well assay plate by Tecan. DMSO: 1.25%. 3) Preparation of 1×Assay buffer: 100 mM HEPES, PH=8.0, 2 mM CaCl2, 50 mM NaCl, 0.1 mM TCEP, 0.6 mg/ml BSA. 4) 2× enzyme working solution (PAD4:20 nM) was prepared with assay buffer, and 10 μL of the obtained working solution were added to the 384-well assay plates. 5) The plate was centrifuged at 1000 rpm for 1 min. 6) After the centrifuge, the plate was incubated at RT for 15 min. 7) 2×BAEE substrate mix (600 μM) was prepared with assay buffer and 10 μL of the obtained substrate mix were added to each well. 8) The plate was centrifuged at 1000 rpm for 1 min and then incubated at RT for 60 min. 9) 1.5× detection mix (DTT:4 mM, OPA:3 mM, EDTA: 30 mM) was prepared, and 10 μL of the mix were added to the plate. 10) The plate was centrifuged at 1000 rpm for 1 min and then incubated at RT for 120 min. 11) The 384-well plates were placed into the Envision (PerkinElmer) and the assay data were collected.
The percent (%) inhibition at each concentration of compound was calculated based on and relative to the signal in the HPE (50 μM ref. compound) and ZPE (1.25% DMSO) wells included within each assay plate. The HPE worked as 100% inhibition, and the ZPE worked as 0% inhibition. The concentrations and % inhibition values for tested compounds were plotted and the concentration of compound required for 50% inhibition (IC50) was determined with a Four-parameter logistic dose response equation. The endpoint value (IC50) for the reference compound was evaluated in each experiment as a quality control measure. If the endpoint value is within 3-fold of the expected value, then the experiment quality is deemed as acceptable. The results are provided in Table 1 below. ≤0.1 μM=“++++”; >0.1 and ≤0.5 μM=“+++”; >0.5 and ≤5.0 μM=“++”; >5.0 μM=“+”. “−”=not available.

[1] = PAD4 ammonia release assay, BAEE substrate, 60 min at RT, read-out: Average IC50 Abs

Protein arginine deiminase 4 (PAD4), sequence (Q9UM07 whole entry): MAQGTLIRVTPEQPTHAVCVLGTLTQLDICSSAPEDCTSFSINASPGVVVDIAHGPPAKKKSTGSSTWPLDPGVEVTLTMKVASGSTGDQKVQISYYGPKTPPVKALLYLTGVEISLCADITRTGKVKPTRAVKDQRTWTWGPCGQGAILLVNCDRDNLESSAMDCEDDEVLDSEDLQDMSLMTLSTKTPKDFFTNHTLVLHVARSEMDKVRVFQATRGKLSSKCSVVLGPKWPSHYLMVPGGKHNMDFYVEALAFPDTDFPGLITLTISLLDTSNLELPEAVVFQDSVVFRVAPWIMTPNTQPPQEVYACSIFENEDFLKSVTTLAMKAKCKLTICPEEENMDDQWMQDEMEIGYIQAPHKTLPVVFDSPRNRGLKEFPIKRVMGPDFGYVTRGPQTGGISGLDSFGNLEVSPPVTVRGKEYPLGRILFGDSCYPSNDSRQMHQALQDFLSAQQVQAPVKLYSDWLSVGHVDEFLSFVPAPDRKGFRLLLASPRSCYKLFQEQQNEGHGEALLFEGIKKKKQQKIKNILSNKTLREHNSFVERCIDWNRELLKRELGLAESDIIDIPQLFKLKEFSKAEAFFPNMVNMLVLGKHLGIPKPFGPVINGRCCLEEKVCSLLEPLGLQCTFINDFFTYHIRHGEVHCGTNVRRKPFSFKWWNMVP

Compound | IC50 [1] | IC50 (PAD4 activity comparison, read-out: PAD4 Ammonia assay IC50) | relative potency of separated isomers in the PAD4 biochemical assay (SFC-separated stereoisomer pairs)
COc1cc(C(=O)N2C[C@H](N)C[C@@H](F)C2)cc2nc(-c3cc4cccc5c4n3CCN5CCCO)n(Cc3ccc(F)cc3)c12 [Example 36, ((3R,5R)-3-amino-5-fluoropiperidin-1-yl)(1-(4-fluorobenzyl)-2-(1-(3-hydroxypropyl)-2,3-dihydro-1H-pyrrolo[1,2,3-de]quinoxalin-5-yl)-7-methoxy-1H-benzo[d]imidazol-5-yl)methanone] | 100 to 500 nM |  | 
CC[C@H]1[C@H](C)Nc2cccc3cc(-c4nc5cc(C(=O)N6C[C@H]7CC[C@@H]6[C@@H]7N)cc(F)c5n4C)n1c23 [Example 134, trans-((1R,4R,7R)-7-amino-2-azabicyclo[2.2.1]heptan-2-yl)(2-(3-ethyl-2-methyl-2,3-dihydro-1H-pyrrolo[1,2,3-de]quinoxalin-5-yl)-7-fluoro-1-methyl-1H-benzo[d]imidazol-5-yl)methanone] | > 5000 nM |  | 
CCn1cc(Cn2c(-c3cc4cccc5c4n3CCN5CCCOC)nc3cc(C(=O)N4C[C@H](N)C[C@@H](F)C4)cc(F)c32)cn1 [Example 41, ((3R,5R)-3-amino-5-fluoropiperidin-1-yl)(1-((1-ethyl-1H-pyrazol-4-yl)methyl)-7-fluoro-2-(1-(3-methoxypropyl)-2,3-dihydro-1H-pyrrolo[1,2,3-de]quinoxalin-5-yl)-1H-benzo[d]imidazol-5-yl)methanone] | 100 to 500 nM |  | 
CCn1c(-c2cc3cccc4c3n2C(C)CN4CCCO)nc2cc(C(=O)N3C[C@H]4CC[C@@H]3[C@@H]4NC(=O)OC(C)(C)C)cc(OC)c21 (stereo partly drawn) [Example 67, tert-butyl ((1R,4R,7R)-2-(1-ethyl-2-(1-(3-hydroxypropyl)-3-methyl-2,3-dihydro-1H-pyrrolo[1,2,3-de]quinoxalin-5-yl)-7-methoxy-1H-benzo[d]imidazole-5-carbonyl)-2-azabicyclo[2.2.1]heptan-7-yl)carbamate] | > 5000 nM |  | 
COc1cc(C(=O)N2C[C@H](N)C[C@@H](F)C2)cc2nc(-c3cc4cccc5c4n3CCN5Cc3cnn(C)c3)n(C)c12 [Example 26, ((3R,5R)-3-amino-5-fluoropiperidin-1-yl)(7-methoxy-1-methyl-2-(1-((1-methyl-1H-pyrazol-4-yl)methyl)-2,3-dihydro-1H-pyrrolo[1,2,3-de]quinoxalin-5-yl)-1H-benzo[d]imidazol-5-yl)methanone] | 500 to 5000 nM |  | 
COc1cc(C(=O)N2CC[C@H](F)[C@H](N)C2)cc2nc(-c3cc4cccc5c4n3CCN5CCCO)n(CC3CC3)c12 [Example 58, ((3R,4S)-3-amino-4-fluoropiperidin-1-yl)(1-(cyclopropylmethyl)-2-(1-(3-hydroxypropyl)-2,3-dihydro-1H-pyrrolo[1,2,3-de]quinoxalin-5-yl)-7-methoxy-1H-benzo[d]imidazol-5-yl)methanone] | 500 to 5000 nM |  | 
CCC1CN(CCO)c2cccc3cc(-c4nc5cc(C(=O)N6C[C@H](N)C[C@@H](F)C6)cc(OC)c5n4C)n1c23 (stereo partly drawn) [Example 79, ((3R,5R)-3-amino-5-fluoropiperidin-1-yl)(2-(3-ethyl-1-(2-hydroxyethyl)-2,3-dihydro-1H-pyrrolo[1,2,3-de]quinoxalin-5-yl)-7-methoxy-1-methyl-1H-benzo[d]imidazol-5-yl)methanone] | 100 to 500 nM |  | 
Cn1c(-c2cc3ccc4c(c3n2CC2CC2)CCNC4)nc2cc(C(=O)N3C[C@H]4CC[C@@H]3[C@@H]4N)cc(F)c21 [Example 151, ((1R,4R,7R)-7-amino-2-azabicyclo[2.2.1]heptan-2-yl)(2-(1-(cyclopropylmethyl)-6,7,8,9-tetrahydro-1H-pyrrolo[2,3-f]isoquinoline-2-yl)-7-fluoro-1-methyl-1H-benzo[d]imidazol-5-yl)methanone] | 500 to 5000 nM |  | 
CC[C@@H]1CN(CCCO)c2cccc3cc(-c4nc5cc(C(=O)N6C[C@H]7CC[C@@H]6[C@@H]7N)cc(F)c5n4C)n1c23 [Example 70, ((1R,4R,7R)-7-amino-2-azabicyclo[2.2.1]heptan-2-yl)(2-((R)-3-ethyl-1-(3-hydroxypropyl)-2,3-dihydro-1H-pyrrolo[1,2,3-de]quinoxalin-5-yl)-7-fluoro-1-methyl-1H-benzo[d]imidazol-5-yl)methanone] | > 5000 nM |  | 
COc1cc(C(=O)N2C[C@H](N)C[C@@H](F)C2)cc2nc(-c3cc4cccc5c4n3CCN5CCCNC(=O)NC3CC3)n(C)c12 [Example 4, 1-(3-(5-(5-((3R,5R)-3-amino-5-fluoropiperidine-1-carbonyl)-7-methoxy-1-methyl-1H-benzo[d]imidazol-2-yl)-2,3-dihydro-1H-pyrrolo[1,2,3-de]quinoxalin-1-yl)propyl)-3-cyclopropylurea] | 500 to 5000 nM |  | 
CCC1CNc2c(F)ccc3cc(-c4nc5cc(C(=O)N6C[C@H]7CC[C@@H]6[C@@H]7N)cc(F)c5n4C)n1c23 (stereo partly drawn) [Example 131, ((1R,4R,7R)-7-amino-2-azabicyclo[2.2.1]heptan-2-yl)(2-(3-ethyl-9-fluoro-2,3-dihydro-1H-pyrrolo[1,2,3-de]quinoxalin-5-yl)-7-fluoro-1-methyl-1H-benzo[d]imidazol-5-yl)methanone] | 100 to 500 nM |  | 
CC[C@@H]1CNc2cccc3cc(-c4nc5cc(C(=O)N6C[C@H]7CC[C@@H]6[C@@H]7N)cc(F)c5n4C)n1c23 [Example 73, ((1R,4R,7R)-7-amino-2-azabicyclo[2.2.1]heptan-2-yl)(2-((R)-3-ethyl-2,3-dihydro-1H-pyrrolo[1,2,3-de]quinoxalin-5-yl)-7-fluoro-1-methyl-1H-benzo[d]imidazol-5-yl)methanone] | > 5000 nM |  | 
COc1cc(C(=O)N2C[C@@H](N)C3(CC3)C2)cc2nc(-c3cc4cccc5c4n3CCN5CCCO)n(CC3CC3)c12 [Example 61, (S)-(7-amino-5-azaspiro[2.4]heptan-5-yl)(1-(cyclopropylmethyl)-2-(1-(3-hydroxypropyl)-2,3-dihydro-1H-pyrrolo[1,2,3-de]quinoxalin-5-yl)-7-methoxy-1H-benzo[d]imidazol-5-yl)methanone] | > 5000 nM |  | 
CC1CNc2cccc3cc(-c4nc5cc(C(=O)N6CCC[C@@H](N)C6)ccc5n4C)n1c23 (stereo partly drawn) [Example 167, ((R)-3-aminopiperidin-1-yl)(1-methyl-2-(3-methyl-2,3-dihydro-1H-pyrrolo[1,2,3-de]quinoxalin-5-yl)-1H-benzo[d]imidazol-5-yl)methanone] | 500 to 5000 nM | 4090 nM | 
COc1cc(C(=O)N2CCC[C@@H](N)C2)cc2nc(-c3cc4cccc5c4n3CCC(=O)N5)n(C)c12 [Example 8, (R)-6-(5-(3-aminopiperidine-1-carbonyl)-7-methoxy-1-methyl-1H-benzo[d]imidazol-2-yl)-3,4-dihydro-[1,4]diazepino[3,2,1-hi]indol-2(1H)-one] | > 5000 nM |  | 
CC[C@H]1CN(CCCO)c2cccc3cc(-c4nc5cc(C(=O)N6C[C@H]7CC[C@@H]6[C@@H]7N)cc(F)c5n4CC)n1c23 [Example 98, ((1R,4R,7R)-7-amino-2-azabicyclo[2.2.1]heptan-2-yl)(1-ethyl-2-((S)-3-ethyl-1-(3-hydroxypropyl)-2,3-dihydro-1H-pyrrolo[1,2,3-de]quinoxalin-5-yl)-7-fluoro-1H-benzo[d]imidazol-5-yl)methanone] | ≤ 100 nM |  | more potent than Example 97
Cn1c(-c2cc3ccc4c(c3n2CC2CC2)CCN4)nc2cc(C(=O)N3C[C@H]4CC[C@@H]3[C@@H]4N)cc(F)c21 [Example 143, ((1R,4R,7R)-7-amino-2-azabicyclo[2.2.1]heptan-2-yl)(2-(1-(cyclopropylmethyl)-1,6,7,8-tetrahydropyrrolo[2,3-e]indol-2-yl)-7-fluoro-1-methyl-1H-benzo[d]imidazol-5-yl)methanone] | 100 to 500 nM |  | 
COc1cc(C(=O)N2CCC[C@@H](N)C2)cc2nc(-c3cc4cccc5c4n3CCN5Cc3ccccc3)n(C)c12 [Example 24, (R)-(3-aminopiperidin-1-yl)(2-(1-benzyl-2,3-dihydro-1H-pyrrolo[1,2,3-de]quinoxalin-5-yl)-7-methoxy-1-methyl-1H-benzo[d]imidazol-5-yl)methanone] | > 5000 nM |  | 
CCC1CN(CCCOC)c2cccc3cc(-c4nc5cc(C(=O)N6C[C@H](N)C[C@@H](F)C6)cc(OC)c5n4C)n1c23 (stereo partly drawn) [Example 84, ((3R,5R)-3-amino-5-fluoropiperidin-1-yl)(2-(3-ethyl-1-(3-methoxypropyl)-2,3-dihydro-1H-pyrrolo[1,2,3-de]quinoxalin-5-yl)-7-methoxy-1-methyl-1H-benzo[d]imidazol-5-yl)methanone] | 100 to 500 nM |  | 
CC[C@@H]1[C@H](C)Nc2cccc3cc(-c4nc5cc(C(=O)N6C[C@H]7CC[C@@H]6[C@@H]7N)cc(F)c5n4C)n1c23 (single isomer, unassigned) [Example 133] | > 5000 nM |  | 
